Test system: CHO-S cells
Assay: Viable cell count of CHO-S cells after 24 hours incubation (anticancer activity)
Assay type: cell-based, hamster
Description: The two compounds, by means of a standard assay, were tested on mammalian (hamster) cancer cells to evaluate possible anticancer activity.
Compound (IIB) was used at concentrations of 25 μM and 50 μM, while Peny compound was tested at concentrations up to 400 μM.
Mammalian cancer cells were then incubated for 24 hours.
Precisely, CHO-S cells were cultured in 2 mL of DMEM (Dulbecco's Modified Eagle Medium) (10% FBS, 6% Glutamax) in a 24-well plate at a density of 200×10^3 cells/per well and subsequently incubated at 37° C. in a controlled atmosphere (5% CO2) under shaking. The following day, cells were counted by means of the Countess II instrument (Thermofisher Scientific) (an automated cell counter). They were then treated with Purymycin (positive control), Peny, (IIB) compounds, and in the absence of any product (negative control), at the concentrations shown in FIG. 37.
Cell counts were performed after 24 hours to determine the number of viable cells.

Question: `CC(=O)OC[C@H]1O[C@@H](OCc2cn(CCCNC(=O)[C@@H]3N4C(=O)N[C@H](C(=O)O)[C@H]4SC3(C)C)nn2)[C@H](OC(C)=O)[C@@H](OC(C)=O)[C@@H]1OC(C)=O` [Compound (IIB), (3S, 7R, 7aR)-2,2-dimethyl-5-oxo-3-((3-(4-((((2R, 3R, 4S, 5R, 6R)-3,4,5-triacetoxy-6-(acetoxymethyl)tetrahydro-2H-pyran-2-yl)oxy)methyl)-1H-1,2,3-triazol-1-yl)propyl)carbamoyl)hexahydroimidazo[5,1-b]thiazole-7-carboxylic acid] was tested. Which cytotoxicity at 50 µM (50 μM, read-out: reduction of viable cells) did it give?
Answer: ~50%

Question: How did the anticancer effect (tested at concentrations up to 400 μM) turn out when `CC(=O)OC[C@@H]1OC(n2cc(COC(=O)[C@@H]3N4C(=O)[C@@H](NC(=O)OC(C)(C)C)[C@H]4SC3(C)C)nn2)[C@@H](OC(C)=O)[C@H](OC(C)=O)[C@H]1OC(C)=O` (some centres unmarked) [Penγ] was run?
Answer: not associated

Reference: patent US12637477B2, “Synthesis process of amide derivatives of hydroxypenicillanic acid” (priority 2020, dated 2026)
